Measured values: PubChem BioAssay AID2060618 (Molecular Pharmacology Branch, DTP, NCI, 2025)

System: 454973-116-R2-J3-PDC spheroids, percent test/control viability
Assay: Anticancer human tumor 454973-116-R2-J3-PDC patient-derived pancreatic carcinoma cell line growth inhibition [CLK]
Conditions: spheroids with HUVEC and MSC; for IC50: curve of first compound; for viability, T/C: stronger effect = lower value; active = viability on the fitted dose curve at most 10% of control; inactive = the rest
Procedure, shortened: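 Patient-derived tumor cells grown as complex spheroids with HUVEC endothelial cells and mesenchymal stem cells, treated with drug combinations. Concentrations descend in half-log steps from near clinical Cmax, or from 10 microM if Cmax unknown.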

[1] = second compound 0.0316 µM, first compound 0.0316 µM
[2] = second compound 0.0316 µM, first compound 0.1 µM
[3] = second compound 0.0316 µM, first compound 0.316 µM
[4] = second compound 0.0316 µM, first compound 1 µM
[5] = second compound 0.1 µM, first compound 0.0316 µM
[6] = second compound 0.1 µM, first compound 0.1 µM
[7] = second compound 0.1 µM, first compound 0.316 µM
[8] = second compound 0.1 µM, first compound 1 µM
[9] = second compound 0.316 µM, first compound 0.0316 µM
[10] = second compound 0.316 µM, first compound 0.1 µM
[11] = second compound 0.316 µM, first compound 0.316 µM
[12] = second compound 0.316 µM, first compound 1 µM
[13] = second compound 1 µM, first compound 0.0316 µM
[14] = second compound 1 µM, first compound 0.1 µM
[15] = second compound 1 µM, first compound 0.316 µM
[16] = second compound 1 µM, first compound 1 µM
[17] = second compound 3.16 µM, first compound 0.0316 µM
[18] = second compound 3.16 µM, first compound 0.1 µM
[19] = second compound 3.16 µM, first compound 0.316 µM
[20] = second compound 3.16 µM, first compound 1 µM
[21] = second compound 10 µM, first compound 0.0316 µM
[22] = second compound 10 µM, first compound 0.1 µM
[23] = second compound 10 µM, first compound 0.316 µM
[24] = second compound 10 µM, first compound 1 µM
[25] = second compound 0.0316 µM, first compound 0.00316 µM
[26] = second compound 0.0316 µM, first compound 0.01 µM
[27] = second compound 0.1 µM, first compound 0.00316 µM
[28] = second compound 0.1 µM, first compound 0.01 µM
[29] = second compound 0.316 µM, first compound 0.00316 µM
[30] = second compound 0.316 µM, first compound 0.01 µM
[31] = second compound 1 µM, first compound 0.00316 µM
[32] = second compound 1 µM, first compound 0.01 µM
[33] = second compound 3.16 µM, first compound 0.00316 µM
[34] = second compound 3.16 µM, first compound 0.01 µM
[35] = second compound 10 µM, first compound 0.00316 µM
[36] = second compound 10 µM, first compound 0.01 µM
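Also: spheroids exposed to compounds for 7 days before readout.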

CC(Nc1ccc2c(c1)OCCn1cc(N3C(=O)OCC3C(F)F)nc1-2)C(N)=O (stereo unspecified) + CN1CCN(c2cc(C(=O)Nc3cc4cc(-c5cnn(C)c5)ccc4cn3)ccn2)CC1
inactive: viability, T/C [1] 91.9% | viability, T/C [2] 82.3% | viability, T/C [3] 81.4% | viability, T/C [4] 68.3% | viability, T/C (second compound 0.0316 µM, first compound 3.16 µM) 64.8% | viability, T/C (second compound 0.0316 µM, first compound 10 µM) 53.1% | viability, T/C [5] 67.4% | viability, T/C [6] 60.2% | viability, T/C [7] 49.9% | viability, T/C [8] 41.8% | viability, T/C (second compound 0.1 µM, first compound 3.16 µM) 34% | viability, T/C (second compound 0.1 µM, first compound 10 µM) 30.2%
> 10000 nM: IC50 (second compound 0.0316 µM)
active: viability, T/C [9] 1.28% | viability, T/C [10] 1.34% | viability, T/C [11] 0.74% | viability, T/C [12] 0.59% | viability, T/C (second compound 0.316 µM, first compound 3.16 µM) 1.78% | viability, T/C (second compound 0.316 µM, first compound 10 µM) 0.43% | viability, T/C [13] 0.08% | viability, T/C [14] 0.11% | viability, T/C [15] 3.02% | viability, T/C [16] 0.1% | viability, T/C (second compound 1 µM, first compound 3.16 µM) 0.88% | viability, T/C (second compound 1 µM, first compound 10 µM) 0.07% | viability, T/C [17] 0.11% | viability, T/C [18] 0.14% | viability, T/C [19] 0.15% | viability, T/C [20] 0.13% | viability, T/C (second compound 3.16 µM, first compound 3.16 µM) 0.13% | viability, T/C (second compound 3.16 µM, first compound 10 µM) 0.38% | viability, T/C [21] 3.01% | viability, T/C [22] 0.2% | viability, T/C [23] 0.2% | viability, T/C [24] 0.22% | viability, T/C (second compound 10 µM, first compound 3.16 µM) 0.21% | viability, T/C (second compound 10 µM, first compound 10 µM) 0.23%
332 nM: IC50 (second compound 0.1 µM)
< 31.6 nM: IC50 (second compound 0.316 µM) | IC50 (second compound 1 µM) | IC50 (second compound 3.16 µM) | IC50 (second compound 10 µM)

CCN1CCN(Cc2ccc(Nc3ncc(F)c(-c4cc(F)c5nc(C)n(C(C)C)c5c4)n3)nc2)CC1 + CN1CCN(c2cc(C(=O)Nc3cc4cc(-c5cnn(C)c5)ccc4cn3)ccn2)CC1
< 3.16 nM: IC50 (second compound 0.316 µM) | IC50 (second compound 1 µM) | IC50 (second compound 3.16 µM) | IC50 (second compound 10 µM)
inactive: viability, T/C [25] 90.9% | viability, T/C [26] 93.5% | viability, T/C [1] 78.7% | viability, T/C [2] 79.1% | viability, T/C [3] 71% | viability, T/C [4] 62.2% | viability, T/C [27] 77.8% | viability, T/C [28] 78.5% | viability, T/C [5] 70.6% | viability, T/C [6] 81.2% | viability, T/C [7] 63.5% | viability, T/C [8] 66.9%
> 1000 nM: IC50 (second compound 0.0316 µM) | IC50 (second compound 0.1 µM)
active: viability, T/C [29] 2.22% | viability, T/C [30] 3.67% | viability, T/C [9] 6.55% | viability, T/C [10] 7.25% | viability, T/C [11] 24.6% | viability, T/C [12] 13.8% | viability, T/C [31] 0.14% | viability, T/C [32] 1.49% | viability, T/C [13] 2.77% | viability, T/C [14] 0.19% | viability, T/C [15] 0.21% | viability, T/C [16] 0.24% | viability, T/C [33] 0.15% | viability, T/C [34] 0.31% | viability, T/C [17] 0.58% | viability, T/C [18] 0.16% | viability, T/C [19] 0.2% | viability, T/C [20] 0.28% | viability, T/C [35] 0.13% | viability, T/C [36] 0.22% | viability, T/C [21] 0.24% | viability, T/C [22] 0.42% | viability, T/C [23] 0.21% | viability, T/C [24] 3.78%

COc1c(OCCCN2CCOCC2)ccc2c3n(c(=NC(=O)c4cnc(N)nc4)nc12)CCN3 + CN1CCN(c2cc(C(=O)Nc3cc4cc(-c5cnn(C)c5)ccc4cn3)ccn2)CC1
< 3.16 nM: IC50 (second compound 0.316 µM) | IC50 (second compound 1 µM) | IC50 (second compound 3.16 µM) | IC50 (second compound 10 µM)
active: viability, T/C [4] 6.87% | viability, T/C [7] 9.33% | viability, T/C [8] 4.74% | viability, T/C [29] 1.28% | viability, T/C [30] 0.96% | viability, T/C [9] 1.21% | viability, T/C [10] 1.68% | viability, T/C [11] 0.41% | viability, T/C [12] 0.17% | viability, T/C [31] 0.15% | viability, T/C [32] 0.11% | viability, T/C [13] 0.55% | viability, T/C [14] 0.06% | viability, T/C [15] 1.84% | viability, T/C [16] 1.26% | viability, T/C [33] 0.21% | viability, T/C [34] 0.99% | viability, T/C [17] 2.18% | viability, T/C [18] 0.08% | viability, T/C [19] 1.65% | viability, T/C [20] 0.11% | viability, T/C [35] 0.1% | viability, T/C [36] 1.86% | viability, T/C [21] 0.15% | viability, T/C [22] 0.42% | viability, T/C [23] 0.43% | viability, T/C [24] 0.62%
inactive: viability, T/C [25] 83.4% | viability, T/C [26] 84.3% | viability, T/C [1] 77.2% | viability, T/C [2] 46.6% | viability, T/C [3] 21.7% | viability, T/C [27] 65.2% | viability, T/C [28] 63.8% | viability, T/C [5] 43.4% | viability, T/C [6] 18.1%
21.7 nM: IC50 (second compound 0.1 µM)
95.1 nM: IC50 (second compound 0.0316 µM)
